Experimental data published in article PMC5632533, “Mechanisms of action and in vivo antibacterial efficacy assessment of five novel hybrid peptides derived from Indolicidin and Ranalexin against Streptococcus pneumoniae” (PeerJ, 2017).

Tested on: S. pneumoniae (highly virulent strain)
Assay: In vivo antipneumococcal activity, pneumococcal bacteremia (lethal systemic infection) model
Design: species or system mice
Settings: for survival of infected mice up to seven days post-infection: 1.5 × 10^2 CFU/mouse IP, 10 mice; for survival of infected mice, treatment via SC and IN routes: up to seven days post-infection
Procedure: Two pneumococcal infection models developed previously in our lab ([Le et al., 2015]) were used to assess the therapeutic efficacy of peptides in vivo. The systemic infection model was used to mimic pneumococcal bacteremia in humans and the pneumococcal pneumonia model was used to mimic pneumococcal pneumonia in humans. A highly virulent strain was used in both the models. The bacterial isolate was grown overnight on Columbia agar with 5% sheep blood at 37 °C under 5% CO2. The bacterial suspension was adjusted to OD625 0.08-0.1 (1 ∼ 2 × 10^8 CFU/ml). Mice tested for lethal systemic infection were inoculated with 1.5 × 10^2 CFU/mouse (100 μl) via IP route. Mice used to assess the Pneumococcal pneumonia model were inoculated with pneumococcal cells of 5 × 10^3 CFU/mouse (50 μl) via the intrathoracic route.
After 1 hr of inoculation, Mice receiving treatment were randomized and divided into six groups. RN7-IN10 and RN7-IN8 were tested at three different doses for each (5 mg/kg, 10 mg/kg and 20 mg/kg) using a group of 10 mice. Graded doses of ceftriaxone (5 mg/kg, 10 mg/kg, […], 40 mg/kg and 80 mg/kg) were also tested to assess the in vivo antibacterial activity of this antibiotic. Only mice injected with PBS were served as uninfected control. Mice injected with bacterial inoculum were used as untreated control group and given sterile distilled water only. Survival of mice was documented for seven days or until death. After seven days, the experiment was ended, the blood and homogenates of the five major organs (kidney, brain, spleen, liver and lung) of the surviving mice were plated on Columbia agar with 5% sheep blood, to detect the presence of pneumococcal cells. […]

[1] = treatment IP 5 mg/kg (peptides at 1 h, 12 h, 24 h post-infection)
[2] = treatment IP 10 mg/kg (peptides at 1 h, 12 h, 24 h post-infection)
[3] = treatment IP 20 mg/kg (peptides at 1 h, 12 h, 24 h post-infection)

Substance | survival of infected mice up to seven days post-infection [1] | survival of infected mice up to seven days post-infection [2] [%] | survival of infected mice up to seven days post-infection [3] [%] | survival of infected mice, treatment via SC and IN routes
FLGGLIKWPWWPWRR-NH2 [RN7-IN8, hybrid peptide of ranalexin (residues 1-7) and indolicidin (residues 6-13)] | failed to treat any of the infected mice | 30 | 50 | none of the mice survived
FLGGLIKWKWPWWPWRR-NH2 [RN7-IN10, hybrid peptide of ranalexin (residues 1-7) and indolicidin (residues 4-13)] | failed to treat any of the infected mice | 10 | 30 | none of the mice survived
